# Patent publication US8703701B2 (Indiana University Research and Technology Corporation, priority 2009, dated 2014)
# Starred links: 1 amine or outer side, 2 acyl side, 3 side chain; linkers in the order of their positions; H or OH if unused. Non-standard residues stand in square brackets, D forms with d. Residues, ends and D or L forms follow the SMILES beside them. Groups on a side chain read outwards from the residue. No end group written: not given here. *: point of attachment. γGlu = O=C(O)[C@H](CCC(=O)[*:2])N[*:1]; Palmitoyl = CCCCCCCCCCCCCCCC(=O)*; Aib = CC(C)(N)C(=O)O
# Key:
# [1] = biological target: T1, glucagon receptor (Homo sapiens, UniProt P47871); experiment: cAMP induction, firefly luciferase reporter assay, glucagon receptor; assay type: cell-based; conditions: for Activity at Glucagon Receptor % Relative Activity: compared to native glucagon
# T1 construct: expressed in transfected cells; host or cells: HEK293
# T1 sequence (P47871 26-477): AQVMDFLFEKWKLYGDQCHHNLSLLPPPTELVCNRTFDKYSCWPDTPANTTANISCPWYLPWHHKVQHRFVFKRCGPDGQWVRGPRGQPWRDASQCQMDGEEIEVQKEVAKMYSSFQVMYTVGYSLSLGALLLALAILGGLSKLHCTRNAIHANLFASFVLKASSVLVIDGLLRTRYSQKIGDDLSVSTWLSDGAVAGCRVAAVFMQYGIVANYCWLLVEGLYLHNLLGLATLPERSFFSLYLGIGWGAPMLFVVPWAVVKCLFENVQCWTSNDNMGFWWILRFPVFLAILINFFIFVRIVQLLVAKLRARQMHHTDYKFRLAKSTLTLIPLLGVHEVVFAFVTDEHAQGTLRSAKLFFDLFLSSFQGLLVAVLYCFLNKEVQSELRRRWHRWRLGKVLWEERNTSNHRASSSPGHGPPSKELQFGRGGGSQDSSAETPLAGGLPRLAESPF
# Description: (§1) The ability of each peptide to induce cAMP was measured in a firefly luciferase-based reporter assay.
# (§2) At the end of the incubation, 100 μL of LucLite luminescence substrate reagent (Perkin Elmer, Wellesley, Mass.) were added to each well. The plate was shaken briefly, incubated 10 min in the dark and light output was measured on MicroBeta-1450 liquid scintillation counter (Perkin-Elmer, Wellesley, Mass.).
# [2] = biological target: T2, GLP-1 receptor (Homo sapiens, UniProt P43220); experiment: cAMP induction, firefly luciferase reporter assay, GLP-1 receptor; assay type: cell-based; conditions: for Activity at GLP-1 Receptor % Relative Activity: compared to native GLP-1
# T2 construct: expressed in transfected cells; host or cells: HEK293
# T2 sequence (P43220 24-463): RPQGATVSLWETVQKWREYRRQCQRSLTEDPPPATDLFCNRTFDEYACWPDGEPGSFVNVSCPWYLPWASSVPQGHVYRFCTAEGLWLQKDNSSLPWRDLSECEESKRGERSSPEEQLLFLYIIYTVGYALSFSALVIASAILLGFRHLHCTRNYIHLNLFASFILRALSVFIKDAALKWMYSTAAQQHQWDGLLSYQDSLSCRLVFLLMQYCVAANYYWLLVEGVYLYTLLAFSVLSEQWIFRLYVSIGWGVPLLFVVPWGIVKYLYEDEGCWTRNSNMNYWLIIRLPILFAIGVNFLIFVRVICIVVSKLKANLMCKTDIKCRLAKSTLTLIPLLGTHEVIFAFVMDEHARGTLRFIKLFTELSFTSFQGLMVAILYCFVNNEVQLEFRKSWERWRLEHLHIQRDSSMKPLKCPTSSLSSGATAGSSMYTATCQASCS
# Description: as §1, §2
compound,measurement,setting,value
CCCCCCCCCCCCCCCC(=O)N[C@@H](CCC(=O)NCCCC[C@H](NC(=O)[C@H](CC(=O)O)NC(=O)[C@H](CO)NC(=O)[C@@H](NC(=O)[C@H](Cc1ccccc1)NC(=O)[C@@H](NC(=O)CNC(=O)[C@H](CCC(N)=O)NC(=O)[C@@H](CO)NC(=O)[C@@H](N)Cc1c[nH]cn1)[C@@H](C)O)[C@@H](C)O)C(=O)N[C@@H](CO)C(=O)N[C@@H](CCCCN)C(=O)N[C@@H](Cc1ccc(O)cc1)C(=O)N[C@@H](CC(C)C)C(=O)N[C@@H](CC(=O)O)C(=O)N[C@@H](CCC(=O)O)C(=O)N[C@@H](CCC(N)=O)C(=O)N[C@@H](C)C(=O)N[C@@H](C)C(=O)N[C@@H](CCCCN)C(=O)N[C@@H](CCC(=O)O)C(=O)N[C@@H](Cc1ccccc1)C(=O)N[C@H](C(=O)N[C@@H](CS)C(=O)N[C@@H](Cc1c[nH]c2ccccc12)C(=O)N[C@@H](CC(C)C)C(=O)N[C@@H](CC(C)C)C(=O)N[C@@H](CC(=O)O)C(=O)N[C@H](C(N)=O)[C@@H](C)O)[C@@H](C)CC)C(=O)O [compound 53],Activity at Glucagon Receptor % Relative Activity,[1]; Table 5,411%
same,Activity at GLP-1 Receptor % Relative Activity,[2]; Table 5,708%
HSQGTFTSDYSKYLDERRAKEFVQWLMNT-NH2 [compound 68],Activity at Glucagon Receptor % Relative Activity,[1]; Table 2B,104%
same,Activity at GLP-1 Receptor % Relative Activity,[2]; Table 2B,44%
CCCCCCCCCCCCCCCC(=O)N[C@@H](CCC(=O)NCCCC[C@H](NC(=O)[C@H](CC(=O)O)NC(=O)[C@H](CO)NC(=O)[C@@H](NC(=O)[C@H](Cc1ccccc1)NC(=O)[C@@H](NC(=O)CNC(=O)[C@H](CCC(N)=O)NC(=O)[C@@H](CO)NC(=O)[C@@H](N)Cc1c[nH]cn1)[C@@H](C)O)[C@@H](C)O)C(=O)N[C@@H](CO)C(=O)N[C@@H](CCCCN)C(=O)N[C@@H](Cc1ccc(O)cc1)C(=O)N[C@@H](CC(C)C)C(=O)N[C@@H](CC(=O)O)C(=O)NC(C)(C)C(=O)N[C@@H](CCCCN)C(=O)N[C@@H](CCCNC(=N)N)C(=O)N[C@@H](C)C(=O)N[C@@H](CCCCN)C(=O)N[C@@H](CCC(=O)O)C(=O)N[C@@H](Cc1ccccc1)C(=O)N[C@H](C(=O)N[C@@H](CS)C(=O)N[C@@H](Cc1c[nH]c2ccccc12)C(=O)N[C@@H](CC(C)C)C(=O)N[C@@H](CC(C)C)C(=O)N[C@@H](CC(=O)O)C(=O)N[C@H](C(N)=O)[C@@H](C)O)C(C)C)C(=O)O [compound 62] (H-H[dS]QGTFTSDK([γGlu-Palmitoyl])SKYLD[Aib]KRAKEFVCWLLDT-NH2; N-terminus assumed),Activity at Glucagon Receptor % Relative Activity,[1]; Table 2B,113%
same,Activity at GLP-1 Receptor % Relative Activity,[2]; Table 2B,246%
CCCCCCCCCCCCCCCC(=O)N[C@@H](CCC(=O)N[C@@H](CCC(=O)NCCCC[C@H](NC(=O)[C@H](CC(=O)O)NC(=O)[C@H](CO)NC(=O)[C@@H](NC(=O)[C@H](Cc1ccccc1)NC(=O)[C@@H](NC(=O)CNC(=O)[C@H](CCC(N)=O)NC(=O)C(C)(C)NC(=O)[C@@H](N)Cc1c[nH]cn1)[C@@H](C)O)[C@@H](C)O)C(=O)N[C@@H](CO)C(=O)N[C@@H](CCCCN)C(=O)N[C@@H](Cc1ccc(O)cc1)C(=O)N[C@@H](CC(C)C)C(=O)N[C@@H](CCC(=O)O)C(=O)NC(C)(C)C(=O)N[C@@H](CCCNC(=N)N)C(=O)N[C@@H](C)C(=O)N[C@@H](C)C(=O)N[C@@H](CCC(N)=O)C(=O)N[C@@H](CC(=O)O)C(=O)N[C@@H](Cc1ccccc1)C(=O)N[C@H](C(=O)N[C@@H](CCC(N)=O)C(=O)N[C@@H](Cc1c[nH]c2ccccc12)C(=O)N[C@@H](CC(C)C)C(=O)N[C@@H](CCSC)C(=O)N[C@@H](CC(=O)O)C(=O)N[C@H](C(N)=O)[C@@H](C)O)C(C)C)C(=O)O)C(=O)O [compound 48] (H-H[Aib]QGTFTSDK([γGlu-γGlu-Palmitoyl])SKYLE[Aib]RAAQDFVQWLMDT-NH2; N-terminus assumed),EC50,"[1]; Activity at Glucagon Receptor EC50 [pM], Table 3A",3 pM
same,Activity at Glucagon Receptor % Relative Activity,[1]; Table 3A,1194%
same,EC50,"[2]; Activity at GLP-1 Receptor EC50 [pM], Table 3A",6 pM
same,Activity at GLP-1 Receptor % Relative Activity,[2]; Table 3A,384%
CCCCCCCCCCCCCCCC(=O)N[C@@H](CCC(=O)NCCCC[C@H](NC(=O)[C@H](CC(=O)O)NC(=O)[C@H](CO)NC(=O)[C@@H](NC(=O)[C@H](Cc1ccccc1)NC(=O)[C@@H](NC(=O)CNC(=O)[C@H](CCC(N)=O)NC(=O)[C@@H](CO)NC(=O)[C@@H](N)Cc1c[nH]cn1)[C@@H](C)O)[C@@H](C)O)C(=O)N[C@@H](CO)C(=O)N[C@@H](CCCCN)C(=O)N[C@@H](Cc1ccc(O)cc1)C(=O)N[C@@H](CC(C)C)C(=O)N[C@@H](CC(=O)O)C(=O)N[C@@H](CCC(=O)O)C(=O)N[C@@H](CCC(N)=O)C(=O)N[C@@H](C)C(=O)N[C@@H](C)C(=O)N[C@@H](CCCCN)C(=O)N[C@@H](CCC(=O)O)C(=O)N[C@@H](Cc1ccccc1)C(=O)N[C@H](C(=O)N[C@@H](CS)C(=O)N[C@@H](Cc1c[nH]c2ccccc12)C(=O)N[C@@H](CC(C)C)C(=O)N[C@@H](CC(C)C)C(=O)N[C@@H](CC(=O)O)C(=O)N[C@H](C(=O)NCC(=O)NCC(=O)O)[C@@H](C)O)[C@@H](C)CC)C(=O)O [compound 56],Activity at Glucagon Receptor % Relative Activity,[1]; Table 5,272%
same,EC50,"[2]; Activity at GLP-1 Receptor EC50 [nM], Table 5",68 pM
same,Activity at GLP-1 Receptor % Relative Activity,[2]; Table 5,125%
CCCCCCCCCCCCCCCC(=O)N[C@@H](CCC(=O)NCCCC[C@H](NC(=O)[C@H](CC(=O)O)NC(=O)[C@H](CO)NC(=O)[C@@H](NC(=O)[C@H](Cc1ccccc1)NC(=O)[C@@H](NC(=O)CNC(=O)[C@H](CCC(N)=O)NC(=O)[C@H](CO)NC(=O)[C@H](Cc1c[nH]cn1)NC(C)=O)[C@@H](C)O)[C@@H](C)O)C(=O)N[C@@H](CO)C(=O)N[C@@H](CCCCN)C(=O)N[C@@H](Cc1ccc(O)cc1)C(=O)N[C@@H](CC(C)C)C(=O)N[C@@H](CC(=O)O)C(=O)N[C@@H](CCC(=O)O)C(=O)N[C@@H](CCC(N)=O)C(=O)N[C@@H](C)C(=O)N[C@@H](C)C(=O)N[C@@H](CCCCN)C(=O)N[C@@H](CCC(=O)O)C(=O)N[C@@H](Cc1ccccc1)C(=O)N[C@H](C(=O)N[C@@H](CS)C(=O)N[C@@H](Cc1c[nH]c2ccccc12)C(=O)N[C@@H](CC(C)C)C(=O)N[C@@H](CC(C)C)C(=O)N[C@@H](CC(=O)O)C(=O)N[C@H](C(N)=O)[C@@H](C)O)[C@@H](C)CC)C(=O)O [compound 57] (Ac-HSQGTFTSDK([γGlu-Palmitoyl])SKYLDEQAAKEFICWLLDT-NH2),Activity at Glucagon Receptor % Relative Activity,[1]; Table 5,1%
CCCCCCCCCCCCCCCC(=O)N[C@@H](CCC(=O)NCCCC[C@H](NC(=O)[C@H](CC(=O)O)NC(=O)[C@H](CO)NC(=O)[C@@H](NC(=O)[C@H](Cc1ccccc1)NC(=O)[C@@H](NC(=O)CNC(=O)[C@H](CCC(N)=O)NC(=O)C(C)(C)NC(=O)[C@@H](N)Cc1c[nH]cn1)[C@@H](C)O)[C@@H](C)O)C(=O)N[C@@H](CO)C(=O)N[C@@H](CCCCN)C(=O)N[C@@H](Cc1ccc(O)cc1)C(=O)N[C@@H](CC(C)C)C(=O)N[C@@H](CC(=O)O)C(=O)N[C@@H](CCC(=O)O)C(=O)N[C@@H](CCC(=O)O)C(=O)N[C@@H](C)C(=O)N[C@H](C(=O)N[C@@H](CCCNC(=N)N)C(=O)N[C@@H](CC(C)C)C(=O)N[C@@H](Cc1ccccc1)C(=O)N[C@H](C(=O)N[C@@H](CCC(=O)O)C(=O)N[C@@H](Cc1c[nH]c2ccccc12)C(=O)N[C@@H](CC(C)C)C(=O)N[C@@H](CCSC)C(=O)N[C@@H](CC(N)=O)C(=O)N[C@H](C(N)=O)[C@@H](C)O)[C@@H](C)CC)C(C)C)C(=O)O [compound 38] (H-H[Aib]QGTFTSDK([γGlu-Palmitoyl])SKYLDEEAVRLFIEWLMNT-NH2; N-terminus assumed),EC50,"[2]; EC50 (nM) at GLP-1 Receptor, Table 7B",19 pM
